In ChEMBL document CHEMBL3046635, “Synthesis and Herbicidal Activity of New Pyrazole-4-carboxamide Derivatives” (J Pestic Sci, 2004):
Activity calls are given as the source filed them.

Tests used:
[1] = tested on: Schoenoplectiella juncoides; experiment: Post-emergence herbicidal activity against Schoenoplectiella juncoides assessed as bleaching of stem/leaf parts; format: functional, organism-based; also: test concentration or dose not given here
[2] = tested on: Rotala indica; experiment: Pre-emergence herbicidal activity against Rotala indica assessed as bleaching of stem/leaf parts; format: functional, organism-based
[3] = tested on: Pontederia vaginalis; experiment: Post-emergence herbicidal activity against Monochoria vaginalis assessed as bleaching of stem/leaf parts; format: functional, organism-based; also: test concentration or dose not given here
[4] = tested on: Eleocharis acicularis; experiment: Pre-emergence herbicidal activity against Eleocharis acicularis assessed as bleaching of stem/leaf parts; format: functional, organism-based
[5] = tested on: Lindernia procumbens; experiment: Pre-emergence herbicidal activity against Lindernia procumbens at 2000 g a.i/ha measured after 14 days; format: functional, organism-based
[6] = tested on: Echinochloa oryzicola; experiment: Pre-emergence herbicidal activity against Echinochloa oryzicola at 2000 g a.i/ha measured after 14 days; format: functional, organism-based
[7] = tested on: Echinochloa oryzicola; experiment: Post-emergence herbicidal activity against Echinochloa oryzicola assessed as bleaching of stem/leaf parts; format: functional, organism-based; also: test concentration or dose not given here
[8] = tested on: Ammannia multiflora; experiment: Post-emergence herbicidal activity against Ammannia multiflora assessed as bleaching of stem/leaf parts; format: functional, organism-based; also: test concentration or dose not given here
[9] = tested on: Ammannia multiflora; experiment: Pre-emergence herbicidal activity against Ammannia multiflora assessed as bleaching of stem/leaf parts; format: functional, organism-based
[10] = tested on: Pontederia vaginalis; experiment: Pre-emergence herbicidal activity against Monochoria vaginalis at 2000 g a.i/ha measured after 14 days; format: functional, organism-based
[11] = tested on: Lindernia procumbens; experiment: Post-emergence herbicidal activity against Lindernia procumbens assessed as bleaching of stem/leaf parts; format: functional, organism-based; also: test concentration or dose not given here
[12] = tested on: Rotala indica; experiment: Post-emergence herbicidal activity against Rotala indica assessed as bleaching of stem/leaf parts; format: functional, organism-based; also: test concentration or dose not given here
[13] = tested on: Echinochloa oryzicola; experiment: Pre-emergence herbicidal activity against Echinochloa oryzicola assessed as bleaching of stem/leaf parts; format: functional, organism-based
[14] = tested on: Cyperus difformis; experiment: Post-emergence herbicidal activity against Cyperus difformis assessed as bleaching of stem/leaf parts; format: functional, organism-based; also: test concentration or dose not given here
[15] = tested on: Elatine triandra; experiment: Post-emergence herbicidal activity against Elatine triandra assessed as bleaching of stem/leaf parts; format: functional, organism-based; also: test concentration or dose not given here
[16] = tested on: Cyperus difformis; experiment: Pre-emergence herbicidal activity against Cyperus difformis at 2000 g a.i/ha measured after 14 days; format: functional, organism-based
[17] = tested on: Rotala indica; experiment: Pre-emergence herbicidal activity against Rotala indica at 2000 g a.i/ha measured after 14 days; format: functional, organism-based
[18] = tested on: Ammannia multiflora; experiment: Pre-emergence herbicidal activity against Ammannia multiflora at 2000 g a.i/ha measured after 14 days; format: functional, organism-based
[19] = tested on: Schoenoplectiella juncoides; experiment: Pre-emergence herbicidal activity against Schoenoplectiella juncoides assessed as bleaching of stem/leaf parts; format: functional, organism-based
[20] = tested on: Cyperus difformis; experiment: Pre-emergence herbicidal activity against Cyperus difformis assessed as bleaching of stem/leaf parts; format: functional, organism-based
[21] = tested on: Elatine triandra; experiment: Pre-emergence herbicidal activity against Elatine triandra at 2000 g a.i/ha measured after 14 days; format: functional, organism-based
[22] = tested on: Eleocharis acicularis; experiment: Pre-emergence herbicidal activity against Eleocharis acicularis at 2000 g a.i/ha measured after 14 days; format: functional, organism-based
[23] = tested on: Lindernia procumbens; experiment: Pre-emergence herbicidal activity against Lindernia procumbens assessed as bleaching of stem/leaf parts; format: functional, organism-based
[24] = tested on: Pontederia vaginalis; experiment: Pre-emergence herbicidal activity against Monochoria vaginalis assessed as bleaching of stem/leaf parts; format: functional, organism-based
[25] = tested on: Elatine triandra; experiment: Pre-emergence herbicidal activity against Elatine triandra assessed as bleaching of stem/leaf parts; format: functional, organism-based
[26] = tested on: Oryza sativa; experiment: Phytotoxicity against Oryza sativa cv. Koshihikari (rice) at 2000 g a.i/ha measured after 14 days; format: organism-based; conditions: in vivo, 336 h
[27] = tested on: Schoenoplectiella juncoides; experiment: Pre-emergence herbicidal activity against Schoenoplectiella juncoides at 2000 g a.i/ha measured after 14 days; format: functional, organism-based
[28] = tested on: Eleocharis acicularis; experiment: Post-emergence herbicidal activity against Eleocharis acicularis assessed as bleaching of stem/leaf parts; format: functional, organism-based; also: test concentration or dose not given here

| SMILES | Activity [1] | Activity [2] | Activity [3] | Activity [4] | Activity [5] | Activity [6] | Activity [7] | Activity [8] | Activity [9] | Activity [10] | Activity [11] | Activity [12] | Activity [13] | Activity [14] | Activity [15] | Activity [16] | Activity [17] | Activity [18] | Activity [19] | Activity [20] | also measured |
| --- | --- | --- | --- | --- | --- | --- | --- | --- | --- | --- | --- | --- | --- | --- | --- | --- | --- | --- | --- | --- | --- |
| CCCN(CC)C(=O)c1cn(C)nc1OCc1cc(F)cc(F)c1 | Active | Active | Active | Active | Active | Active | Active | Active | Active | Active | Active | Active | Active | Active | Active | Active | Active | Active | Active | Active | Activity [21]: Active; Activity [22]: inactive; Activity [23]: Active; Activity [24]: Active; Activity [25]: Active; Activity [26]: Non-toxic; Activity [27]: Active; Activity [28]: Active |
| CCCN(CC)C(=O)c1cn(C)nc1OCc1ccccc1C(F)(F)F | Active | Active | Active | Active | inactive | inactive | Active | Active | Active | inactive | Active | Active | Active | Active | Active | inactive | inactive | inactive | Active | Active | Activity [21]: inactive; Activity [22]: inactive; Activity [23]: Active; Activity [24]: Active; Activity [25]: Active; Activity [26]: Non-toxic; Activity [27]: inactive; Activity [28]: Active |
| CCCN(CC)C(=O)c1cn(C)nc1OCc1cccc(C(F)(F)F)c1 | Active | Active | Active | Active | inactive | Active | Active | Active | Active | Active | Active | Active | Active | Active | Active | Active | inactive | inactive | Active | Active | Activity [21]: inactive; Activity [22]: Active; Activity [23]: Active; Activity [24]: Active; Activity [25]: Active; Activity [26]: Toxic; Activity [27]: Active; Activity [28]: Active |
| CCCN(CC)C(=O)c1cn(C)nc1OCc1cc(C(F)(F)F)cc(C(F)(F)F)c1 | Active | Active | Active | Active | inactive | inactive | Active | Active | Active | inactive | Active | Active | Active | Active | Active | inactive | inactive | inactive | Active | Active | Activity [21]: inactive; Activity [22]: inactive; Activity [23]: Active; Activity [24]: Active; Activity [25]: Active; Activity [26]: Non-toxic; Activity [27]: inactive; Activity [28]: Active |
| CCCN(CC)C(=O)c1cn(C)nc1OCc1ccc(SC)cc1 | Active | Active | Active | Active | inactive | inactive | Active | Active | Active | inactive | Active | Active | Active | Active | Active | inactive | inactive | inactive | Active | Active | Activity [21]: inactive; Activity [22]: inactive; Activity [23]: Active; Activity [24]: Active; Activity [25]: Active; Activity [26]: Non-toxic; Activity [27]: inactive; Activity [28]: Active |
